Results taken from PubChem BioAssay (NCI).
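A five-concentration, 48-hour dose response in 96-well plates underlies each endpoint, interpolated linearly between surrounding concentrations. At the TGI there is no net growth.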

What was measured:
Test in all cases: growth of human tumour cells (NCI), 48 h
HCT-15 colon = tested on: HCT-15 colon
A549 NSCLC = tested on: A549 NSCLC
NCI-H226 lung = tested on: NCI-H226 lung
MDA-MB-435 = tested on: MDA-MB-435
OVCAR-5 ovarian = tested on: OVCAR-5 ovarian
SF-539 CNS = tested on: SF-539 CNS
SW-620 colon = tested on: SW-620 colon
SK-MEL-2 melanoma = tested on: SK-MEL-2 melanoma
SNB-75 CNS = tested on: SNB-75 CNS
BT-549 breast = tested on: BT-549 breast
HL-60(TB) leukemia = tested on: HL-60(TB) leukemia
TK-10 renal = tested on: TK-10 renal
U251 CNS = tested on: U251 CNS
UACC-257 melanoma = tested on: UACC-257 melanoma
M14 melanoma = tested on: M14 melanoma
K-562 leukemia = tested on: K-562 leukemia
DU-145 prostate = tested on: DU-145 prostate
OVCAR-3 ovarian = tested on: OVCAR-3 ovarian
MDA-MB-231 breast = tested on: MDA-MB-231 breast
NCI-H522 lung = tested on: NCI-H522 lung

| Compound | TGI (HCT-15 colon) [µM] | TGI (A549 NSCLC) [µM] | TGI (NCI-H226 lung) [µM] | TGI (MDA-MB-435) [µM] | TGI (OVCAR-5 ovarian) [µM] | TGI (SF-539 CNS) [µM] | TGI (SW-620 colon) [µM] | TGI (SK-MEL-2 melanoma) [µM] | TGI (SNB-75 CNS) [µM] | TGI (BT-549 breast) [µM] | TGI (HL-60(TB) leukemia) [µM] | TGI (TK-10 renal) [µM] | TGI (U251 CNS) [µM] | TGI (UACC-257 melanoma) [µM] | TGI (M14 melanoma) [µM] | TGI (K-562 leukemia) [µM] | TGI (DU-145 prostate) [µM] | TGI (OVCAR-3 ovarian) [µM] | TGI (MDA-MB-231 breast) [µM] | TGI (NCI-H522 lung) [µM] |
| --- | --- | --- | --- | --- | --- | --- | --- | --- | --- | --- | --- | --- | --- | --- | --- | --- | --- | --- | --- | --- |
| COc1ccc(/C=C2\CCc3cc(OC)c(OC)cc3C2=O)cc1 | > 10 | > 10 | > 10 | > 10 | > 10 | > 10 | > 10 | > 10 | > 10 | > 10 | > 10 | > 10 | > 10 | > 10 | > 10 | > 10 | > 10 | > 10 | > 10 | – |
| COc1ccc(Nc2nc3ccc(C(F)(F)F)cc3nc2C(=O)O)cc1 | > 100 | > 100 | > 100 | > 100 | 84.9 | 75.9 | > 100 | > 100 | 78.6 | 49.4 | – | > 100 | > 100 | 96.7 | > 100 | > 100 | > 100 | 47.4 | > 100 | – |
| COc1c(Br)cc(/C=C(\C#N)c2ccccn2)cc1Br | > 100 | > 100 | > 100 | – | > 100 | > 100 | > 100 | 41.8 | 17.1 | 94.8 | > 100 | > 100 | > 100 | > 100 | > 100 | > 100 | > 100 | > 100 | – | > 100 |
| Cn1ccoc1=Nc1ccc(Cl)c(Cl)c1 | > 10 | > 10 | > 10 | > 10 | > 10 | > 10 | > 10 | – | > 10 | > 10 | – | > 10 | > 10 | > 10 | > 10 | > 10 | > 10 | > 10 | > 10 | > 10 |
| CCOC(=O)C(NC(=O)c1cccc(Cl)c1)(N1CCN(c2cc3c(cc2F)c(=O)c(C(=O)O)cn3C2CC2)CC1)C(F)(F)F (stereo not given) | – | 50.5 | 40.3 | 28.8 | 31.1 | 31.3 | 27.2 | 29.8 | 50.7 | 38.4 | 6.64 | – | 18.3 | – | 33.2 | 20.1 | 70.5 | 29.5 | 34.2 | – |
| NCCNCCCNC(=O)c1cc(-c2ccccc2)nc2ccccc12 | > 100 | > 100 | > 100 | 43.5 | > 100 | 36.7 | > 100 | 42.7 | – | > 100 | > 100 | > 100 | 36.6 | 51.5 | 28.3 | 54.9 | > 100 | > 100 | > 100 | 37.6 |
| Cc1ccc(S(=O)(=O)Oc2nc3nc4ccccc4nc3nc2OS(=O)(=O)c2ccc(C)cc2)cc1 | > 100 | > 100 | > 100 | > 100 | > 100 | > 100 | – | > 100 | > 100 | > 100 | – | > 100 | > 100 | > 100 | > 100 | – | > 100 | > 100 | > 100 | > 100 |
| COCCOC1=C(Cl)C(=O)c2c(O)ccc(O)c2C1=O | 3.32 | 28.5 | 28.9 | 2.23 | 13.7 | 5.46 | 1.4 | 14.5 | 13.9 | 5.44 | – | 3.24 | 12.1 | 4.85 | 3.22 | – | 13.2 | 3.08 | 3.2 | 1.67 |
| COc1ccc(/C=C2\N=C(c3ccccc3)OC2=O)cc1OC(C)=O | > 100 | > 100 | > 100 | > 100 | > 100 | > 100 | > 100 | 83.5 | > 100 | > 100 | > 100 | > 100 | > 100 | > 100 | > 100 | > 100 | > 100 | > 100 | > 100 | – |
| N=c1oc2ccc(Cl)cc2cc1C(N)=O | 69.2 | > 100 | 78.1 | 82 | > 100 | > 100 | > 100 | 31.8 | > 100 | > 100 | > 100 | – | > 100 | > 100 | > 100 | > 100 | > 100 | 64.9 | 69 | – |
| COc1ccc2c(c1)/C(=C\c1c(Cl)n(-c3ccccc3)c3ccccc13)C(=O)N2 | 25.3 | 51.4 | 24.5 | – | 50 | 41.6 | > 100 | 51.1 | 52.2 | 51.3 | 10.7 | 84.4 | 38.5 | 50.8 | 15 | > 100 | 21.4 | 6.78 | > 100 | – |
| COc1ccc2c(c1)CCc1c-2n(CCN2CCOCC2)c2ccc(OC)cc12 | > 100 | > 100 | > 100 | > 100 | > 100 | > 100 | > 100 | > 100 | > 100 | > 100 | – | > 100 | > 100 | > 100 | > 100 | 54 | > 100 | > 100 | > 100 | > 100 |
| O=C(Nc1ncc([N+](=O)[O-])s1)c1ccccc1O | > 86.9 | > 87.4 | 27.1 | 66.7 | > 100 | > 100 | > 100 | 35.6 | > 70.8 | 79.2 | – | > 100 | > 100 | 98.4 | 79.7 | > 100 | > 89.4 | > 42.4 | > 77.5 | 28.3 |
| O=C(N/N=C/c1ccc(Cl)cc1)c1ccccc1Nc1ccccc1C(=O)N/N=C/c1ccc(Cl)cc1 | > 100 | > 100 | > 100 | > 100 | > 100 | – | > 100 | > 100 | > 100 | > 100 | – | > 100 | > 100 | > 100 | > 100 | > 100 | > 100 | > 100 | > 100 | – |
| COc1cc2c(cc1OC)C(=O)/C(=C/c1cc(Cl)cc(Cl)c1)C2 | > 100 | > 100 | > 100 | > 19.6 | > 100 | 9.94 | > 100 | > 95 | – | > 100 | > 100 | > 100 | > 100 | > 100 | > 100 | > 44.4 | > 100 | > 100 | > 100 | – |
| Cc1cc2cc3ccccc3cc2c(=O)[nH]1 | – | > 10 | > 10 | > 10 | > 10 | > 10 | > 10 | – | > 10 | > 10 | > 10 | > 10 | > 10 | > 10 | > 10 | > 10 | > 10 | > 10 | – | > 10 |
| CSc1nc(Br)nc2ncn(C3CC(Oc4ccc(C)cc4)C(COc4ccc(C)cc4)O3)c12 (stereo not given) | > 100 | > 100 | > 100 | > 100 | > 100 | > 100 | > 100 | > 100 | > 100 | > 100 | > 100 | > 100 | > 100 | > 100 | > 100 | – | > 100 | > 100 | > 100 | > 100 |
| CSc1ccc(/C=C2\N=C(c3ccccc3)N(/N=C3\C(=O)Nc4ccccc43)C2=O)cc1 | > 100 | > 100 | – | > 100 | > 100 | > 100 | > 100 | > 100 | > 100 | > 100 | > 100 | > 100 | > 100 | > 100 | > 100 | > 100 | > 100 | > 100 | > 100 | > 100 |
| OCCCCCCCCCCCOc1ccc(C2OCC3(CC=CCC3)CO2)cc1 (stereo not given) | 32.3 | 45.7 | 52.9 | 38 | 46.3 | 45.6 | 39.1 | > 100 | 28.2 | 30.9 | 88.7 | 32.1 | 33.2 | 38.2 | 26 | – | 32.6 | 57.3 | 31.4 | 23.4 |
| Clc1ccc(-c2nc3ccc4ccccc4c3c3c2CCCC3)cc1 | > 100 | > 100 | > 100 | > 100 | > 100 | > 100 | > 100 | > 100 | > 100 | > 100 | – | > 100 | > 100 | > 100 | > 100 | > 100 | > 100 | > 100 | > 100 | > 100 |
| CCCCCCC1CC(=O)C1(Cl)Cl (stereo not given) | 99.6 | > 100 | > 100 | – | > 100 | > 100 | > 100 | 68.3 | 36 | 48.6 | 44.1 | > 100 | > 100 | 41.1 | 62.6 | > 100 | 92.8 | – | 68.5 | 34.6 |
| CC(=O)OCC1OC(Oc2cc(C)c(O)cc2C/C=C(\C)CC/C=C(\C)C[C@@H](C=C(C)C)OC(C)=O)C(O)C(OC(C)=O)C1OC(C)=O (stereo not given in full) | > 50 | > 50 | – | > 50 | > 50 | – | > 50 | > 50 | 48.2 | > 50 | 21 | > 50 | > 50 | 39.8 | > 50 | 35.4 | > 50 | > 50 | > 50 | > 50 |
| N#C/C(C(=O)Nc1ccc(Cl)cc1)=C(/N)N1CCOCC1 | > 100 | > 100 | > 100 | > 100 | > 100 | > 100 | > 100 | > 100 | > 100 | > 100 | – | – | > 100 | > 100 | > 100 | > 100 | > 100 | > 100 | – | – |
| NS(=O)(=O)c1nnc(NS(=O)(=O)c2ccc(Cl)cc2)s1 | > 100 | > 100 | > 100 | > 100 | > 100 | – | > 100 | > 100 | – | > 100 | – | > 100 | > 100 | > 100 | > 100 | > 100 | > 100 | > 100 | > 100 | > 100 |
| Cc1cc2c(cc1C)C(=O)/C(=C/c1ccccc1C(=O)O)C2 | > 100 | > 100 | 57.8 | > 100 | 68.9 | 39.6 | > 100 | > 100 | > 100 | > 100 | > 100 | > 100 | 68.8 | > 100 | > 100 | > 100 | > 100 | > 100 | – | > 100 |
| O=c1c2ccccc2nc2sc(/N=C/C=C/c3ccccc3)nn12 | > 100 | > 100 | > 100 | > 100 | > 100 | > 100 | > 100 | > 100 | > 100 | > 100 | – | > 100 | > 100 | > 100 | > 100 | > 100 | > 100 | > 100 | – | > 100 |
